What was measured:
[1] = In vitro serum stability (radio-ITLC); assay type: in vitro ADME; conditions: 37 C, after 7 days
Outline: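 89Zr-labeled complexes (70 μCi, 2.59 MBq) incubated in human serum at 37 °C for 7 days (n=4). Analyzed daily by radio-ITLC on ITLC-SA strips with 0.1 M EDTA (pH 5) mobile phase and gamma counting; SEC in PBS after 7 days.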

[2] = In vitro metal competition study; assay type: physicochemical; conditions: PBS pH 7.4, 37 C
Outline: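 Each 89Zr-labeled complex (0.1 mM stock) in PBS, pH 7.4, was mixed with 1 mM solutions of Fe(III), Co(II), Zn(II), Cu(II), Mg(II), Ga(III) or Gd(III) salts. Mixtures were incubated at 37 °C for 7 days. 89Zr release was tracked by radio-TLC at 2 h, 1 d, 4 d and 7 d, in triplicate.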

[3] = In vitro EDTA challenge study; assay type: physicochemical
Outline: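 Each 89Zr-labeled complex incubated at 37 °C for up to 7 days with EDTA (10, 50 or 100 mM; pH 5 or 7) at 1:100, 1:500 and 1:1000 ligand/EDTA ratios, n=4. Intact fraction sampled from 30 min to 7 d by radio-TLC (0.1 M EDTA pH 5 mobile phase) and gamma counting.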

Biodistribution studies = assay type: in vivo, female NIH Swiss mice; conditions: mice, intravenous, 72 h post-injection
Outline: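 Female NIH Swiss mice (6-8 wk, n=6) received 89Zr-labeled complex, 0.55 MBq (15 μCi)/mouse i.v. via tail vein; organs excised at 2, 4, 24, 48, 72 h, weighed and gamma-counted. %ID/g and %ID/organ derived against a weighed, counted standard; mean±SD, two-tailed unpaired t test.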

## O=P1(O)CN2CCN3CCN4CCN(CC2)CP(=O)(O)[O][89Zr]([O]1)([O]P(=O)(O)C3)[O]P(=O)(O)C4 [89Zr-DOTP]
[1]
  Radio-ITLC peak of complex in human serum: 95.2%
[2]; Co2+, 2 h
  % Intact of 89Zr-complexes: 99.1 ± 0.2%
[2]; Co2+, 1 d
  % Intact of 89Zr-complexes: 97.2 ± 0.1%
[2]; Co2+, 4 d
  % Intact of 89Zr-complexes: 95.3 ± 0.5%
[2]; Co2+, 7 d
  % Intact of 89Zr-complexes: 93.5 ± 1.3%
[2]; Cu2+, 2 h
  % Intact of 89Zr-complexes: 98.4 ± 0.1%
[2]; Cu2+, 1 d
  % Intact of 89Zr-complexes: 95.4 ± 0.2%
[2]; Cu2+, 4 d
  % Intact of 89Zr-complexes: 97.5 ± 0.7%
[2]; Cu2+, 7 d
  % Intact of 89Zr-complexes: 94.4 ± 1.3%
[2]; Fe3+, 2 h
  % Intact of 89Zr-complexes: 99.3 ± 0.1%
[2]; Fe3+, 1 d
  % Intact of 89Zr-complexes: 96.8 ± 1.2%
[2]; Fe3+, 4 d
  % Intact of 89Zr-complexes: 89.5 ± 0.7%
[2]; Fe3+, 7 d
  % Intact of 89Zr-complexes: 84.0 ± 0.4%
[2]; Ga3+, 2 h
  % Intact of 89Zr-complexes: 99.2 ± 0.1%
[2]; Ga3+, 1 d
  % Intact of 89Zr-complexes: 98.2 ± 0.2%
[2]; Ga3+, 4 d
  % Intact of 89Zr-complexes: 93.6 ± 0.6%
[2]; Ga3+, 7 d
  % Intact of 89Zr-complexes: 91.1 ± 1.4%
[2]; Gd3+, 2 h
  % Intact of 89Zr-complexes: 99.5 ± 0.4%
[2]; Gd3+, 1 d
  % Intact of 89Zr-complexes: 97.9 ± 0.4%
[2]; Gd3+, 4 d
  % Intact of 89Zr-complexes: 93.2 ± 1.0%
[2]; Gd3+, 7 d
  % Intact of 89Zr-complexes: 91.7 ± 2.0%
[2]; Mg2+, 2 h
  % Intact of 89Zr-complexes: 99.2 ± 0.2%
[2]; Mg2+, 1 d
  % Intact of 89Zr-complexes: 99.4 ± 0.1%
[2]; Mg2+, 4 d
  % Intact of 89Zr-complexes: 98.1 ± 0.1%
[2]; Mg2+, 7 d
  % Intact of 89Zr-complexes: 96.3 ± 0.4%
[2]; Zn2+, 2 h
  % Intact of 89Zr-complexes: 99.0 ± 0.1%
[2]; Zn2+, 1 d
  % Intact of 89Zr-complexes: 95.4 ± 0.3%
[2]; Zn2+, 4 d
  % Intact of 89Zr-complexes: 89.4 ± 1.5%
[2]; Zn2+, 7 d
  % Intact of 89Zr-complexes: 84.7 ± 2.7%
[3]; EDTA 100-fold, pH 5.0, 37 C, 1 h
  % Intact of 89Zr-complexes: 98.6 ± 0.3%
[3]; EDTA 100-fold, pH 5.0, 37 C, 1 d
  % Intact of 89Zr-complexes: 91.8 ± 0.9%
[3]; EDTA 100-fold, pH 5.0, 37 C, 3 d
  % Intact of 89Zr-complexes: 84.3 ± 0.7%
[3]; EDTA 100-fold, pH 5.0, 37 C, 5 d
  % Intact of 89Zr-complexes: 78.6 ± 1.0%
[3]; EDTA 100-fold, pH 5.0, 37 C, 7 d
  % Intact of 89Zr-complexes: 56.5 ± 1.4%
[3]; EDTA 100-fold, pH 7.0, 37 C, 1 h
  % Intact of 89Zr-complexes: 99.8 ± 0.1%
[3]; EDTA 100-fold, pH 7.0, 37 C, 1 d
  % Intact of 89Zr-complexes: 98.6 ± 0.1%
[3]; EDTA 100-fold, pH 7.0, 37 C, 3 d
  % Intact of 89Zr-complexes: 96.8 ± 0.3%
[3]; EDTA 100-fold, pH 7.0, 37 C, 5 d
  % Intact of 89Zr-complexes: 94.5 ± 0.5%
[3]; EDTA 100-fold, pH 7.0, 37 C, 7 d
  % Intact of 89Zr-complexes: 92.5 ± 0.4%
[3]; EDTA 500-fold, pH 5.0, 37 C, 1 h
  % Intact of 89Zr-complexes: 97.4 ± 0.4%
[3]; EDTA 500-fold, pH 5.0, 37 C, 1 d
  % Intact of 89Zr-complexes: 89.4 ± 0.7%
[3]; EDTA 500-fold, pH 5.0, 37 C, 3 d
  % Intact of 89Zr-complexes: 72.4 ± 1.4%
[3]; EDTA 500-fold, pH 5.0, 37 C, 5 d
  % Intact of 89Zr-complexes: 66.7 ± 0.7%
[3]; EDTA 500-fold, pH 5.0, 37 C, 7 d
  % Intact of 89Zr-complexes: 53.8 ± 0.8%
[3]; EDTA 500-fold, pH 7.0, 37 C, 1 h
  % Intact of 89Zr-complexes: 99.5 ± 0.3%
[3]; EDTA 500-fold, pH 7.0, 37 C, 1 d
  % Intact of 89Zr-complexes: 98.2 ± 0.1%
[3]; EDTA 500-fold, pH 7.0, 37 C, 3 d
  % Intact of 89Zr-complexes: 94.9 ± 1.1%
[3]; EDTA 500-fold, pH 7.0, 37 C, 5 d
  % Intact of 89Zr-complexes: 91.4 ± 0.3%
[3]; EDTA 500-fold, pH 7.0, 37 C, 7 d
  % Intact of 89Zr-complexes: 89.3 ± 0.6%
[3]; EDTA 1000-fold, pH 5.0, 37 C, 1 h
  % Intact of 89Zr-complexes: 96.3 ± 0.5%
[3]; EDTA 1000-fold, pH 5.0, 37 C, 1 d
  % Intact of 89Zr-complexes: 87.3 ± 1.2%
[3]; EDTA 1000-fold, pH 5.0, 37 C, 3 d
  % Intact of 89Zr-complexes: 67.5 ± 1.1%
[3]; EDTA 1000-fold, pH 5.0, 37 C, 5 d
  % Intact of 89Zr-complexes: 58.9 ± 1.4%
[3]; EDTA 1000-fold, pH 5.0, 37 C, 7 d
  % Intact of 89Zr-complexes: 43.7 ± 1.1%
[3]; EDTA 1000-fold, pH 7.0, 37 C, 1 h
  % Intact of 89Zr-complexes: 99.2 ± 0.1%
[3]; EDTA 1000-fold, pH 7.0, 37 C, 1 d
  % Intact of 89Zr-complexes: 97.9 ± 0.1%
[3]; EDTA 1000-fold, pH 7.0, 37 C, 3 d
  % Intact of 89Zr-complexes: 91.5 ± 0.6%
[3]; EDTA 1000-fold, pH 7.0, 37 C, 5 d
  % Intact of 89Zr-complexes: 84.9 ± 0.6%
[3]; EDTA 1000-fold, pH 7.0, 37 C, 7 d
  % Intact of 89Zr-complexes: 79.4 ± 1.2%
Biodistribution studies
  Radioactivity in blood: 0.0005 ± 0.001 % ID per g
  Radioactivity in bone: 2.63 ± 0.12 % ID per g
  Radioactivity in kidney: 0.32 ± 0.045 % ID per g
  Radioactivity in liver: 0.036 ± 0.002 % ID per g
